The record followed here is patent US20230117034A1, “PYRAZOLOTRIAZINES” (Bayer Aktiengesellschaft, priority 2019, published 2023).

Where only a bound is given, the exact number is not on record here.

Assay [1] has as its target T1, CDK12 (nuclear staining in CAL-120 cells) (Homo sapiens, UniProt Q9NYV4).
T1 construct: endogenous in cells; host or cells: CAL-120 human breast cancer cells (DSMZ ACC 459)
Nature of the assay: CDK12 nuclear protein level: immunofluorescence/high content analysis (CAL-120). Particulars: for DC50: CAL-120 cells, 24 h, immunofluorescence, 50% reduction of nuclear CDK12 staining intensity, median, read-out: CDK12 degradation IF, DC50- [mol/l] (median); for (IC50 CDK12 high ATP) to (Degradation DC50 CDK12) ratio: ratio of IC50 CDK12 high ATP kinase assay to DC50 CDK12 degradation (IF, CAL-120). In kind it is cell-based. In short, it runs like this: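 CAL-120 cells were treated with compound for 24 h at 37 °C, fixed with PFA and immunostained for CDK12. Nuclear CDK12 intensity was quantified by automated image analysis and normalized to DMSO and control. DC50 is the concentration giving 50% reduction of nuclear staining.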

For assay [2], the system named is CAL-120, human breast adenocarcinoma cells. Kind of assay: Proliferation assay CAL-120 (crystal violet, 4 days). The class given is cell-based. Particulars: Homo sapiens, CAL-120, 96 h, CAL-120 cells, median, read-out: Prolif-CAL-120, IC50-[mol/l] (median). In short, it runs like this:
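Cells seeded at 4,000/well in medium with 10% FCS; after 24 h, compounds added at 0.01-10 µmol/L (0.1% DMSO) for 4 days. Glutaraldehyde-fixed, crystal violet-stained, absorbance at 595 nm normalized to zero-point plate (0%) and untreated cells (100%); IC50 by 4-parameter fit.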

Assay [3] has as its target T2, CDK2/CycE (Homo sapiens, UniProt P24941).
T2 construct: purchased ProQinase GmbH (Freiburg, Germany); host or cells: insect cells (Sf9)
Kind of assay: CDK2/CycE kinase assay (TR-FRET, 2 mM ATP). In kind it is biochemical. Particulars: 2 mM ATP (high ATP); median; read-out: CDK2/CyclinE, 2 mM ATP (high ATP), IC50 (median). In short, it runs like this: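 GST-tagged human CDK2 and CycE from Sf9 cells, about 10 ng/ml, pre-incubated 15 min at 22 °C with compound in Tris/HCl pH 8.0 buffer. Reaction with 2 mM ATP and 0.75 µM biotinylated peptide for 25 min at 22 °C. Phospho-RB antibody TR-FRET (665/620 nm ratio) read after 1 h; data normalised to no-inhibitor and no-enzyme controls.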

T1 sequence (Q9NYV4 whole entry): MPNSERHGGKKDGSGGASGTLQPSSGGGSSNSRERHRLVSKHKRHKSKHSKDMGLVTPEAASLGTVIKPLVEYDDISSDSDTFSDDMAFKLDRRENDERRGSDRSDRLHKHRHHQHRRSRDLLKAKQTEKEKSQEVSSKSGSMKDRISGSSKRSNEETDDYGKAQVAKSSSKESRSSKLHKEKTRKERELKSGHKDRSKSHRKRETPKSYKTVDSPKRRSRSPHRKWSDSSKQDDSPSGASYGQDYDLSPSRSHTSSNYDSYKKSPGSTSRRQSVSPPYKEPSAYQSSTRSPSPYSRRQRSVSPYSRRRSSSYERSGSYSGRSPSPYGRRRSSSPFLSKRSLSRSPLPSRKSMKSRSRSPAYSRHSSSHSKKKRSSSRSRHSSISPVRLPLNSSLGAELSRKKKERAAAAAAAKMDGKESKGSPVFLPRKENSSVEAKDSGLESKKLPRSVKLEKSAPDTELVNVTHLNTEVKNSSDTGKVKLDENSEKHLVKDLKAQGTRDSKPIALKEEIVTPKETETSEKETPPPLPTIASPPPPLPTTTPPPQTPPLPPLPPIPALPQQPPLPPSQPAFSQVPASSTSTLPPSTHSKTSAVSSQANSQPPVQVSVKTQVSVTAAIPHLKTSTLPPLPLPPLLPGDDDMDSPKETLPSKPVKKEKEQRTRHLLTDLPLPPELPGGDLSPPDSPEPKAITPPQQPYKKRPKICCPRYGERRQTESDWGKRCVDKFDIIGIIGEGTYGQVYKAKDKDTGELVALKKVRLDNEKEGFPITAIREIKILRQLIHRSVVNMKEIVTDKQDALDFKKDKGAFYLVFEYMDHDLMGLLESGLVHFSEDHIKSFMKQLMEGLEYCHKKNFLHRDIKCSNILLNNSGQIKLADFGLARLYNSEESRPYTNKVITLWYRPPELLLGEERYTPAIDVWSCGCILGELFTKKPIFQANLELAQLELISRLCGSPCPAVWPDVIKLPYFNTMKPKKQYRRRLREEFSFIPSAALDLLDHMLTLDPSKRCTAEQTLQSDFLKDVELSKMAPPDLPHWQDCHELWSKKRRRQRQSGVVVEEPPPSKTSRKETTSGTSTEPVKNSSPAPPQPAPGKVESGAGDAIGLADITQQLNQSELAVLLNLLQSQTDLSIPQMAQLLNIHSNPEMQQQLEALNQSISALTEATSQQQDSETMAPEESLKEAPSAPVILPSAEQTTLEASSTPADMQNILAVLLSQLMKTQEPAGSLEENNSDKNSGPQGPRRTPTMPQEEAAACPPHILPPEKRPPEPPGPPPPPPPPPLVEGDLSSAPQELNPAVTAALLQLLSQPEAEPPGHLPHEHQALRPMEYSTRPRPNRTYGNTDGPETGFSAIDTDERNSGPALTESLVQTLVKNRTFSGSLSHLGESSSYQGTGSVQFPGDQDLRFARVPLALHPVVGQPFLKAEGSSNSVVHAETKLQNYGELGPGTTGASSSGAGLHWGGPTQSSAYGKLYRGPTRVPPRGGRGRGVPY
T1 sequence (O75909 whole entry partner): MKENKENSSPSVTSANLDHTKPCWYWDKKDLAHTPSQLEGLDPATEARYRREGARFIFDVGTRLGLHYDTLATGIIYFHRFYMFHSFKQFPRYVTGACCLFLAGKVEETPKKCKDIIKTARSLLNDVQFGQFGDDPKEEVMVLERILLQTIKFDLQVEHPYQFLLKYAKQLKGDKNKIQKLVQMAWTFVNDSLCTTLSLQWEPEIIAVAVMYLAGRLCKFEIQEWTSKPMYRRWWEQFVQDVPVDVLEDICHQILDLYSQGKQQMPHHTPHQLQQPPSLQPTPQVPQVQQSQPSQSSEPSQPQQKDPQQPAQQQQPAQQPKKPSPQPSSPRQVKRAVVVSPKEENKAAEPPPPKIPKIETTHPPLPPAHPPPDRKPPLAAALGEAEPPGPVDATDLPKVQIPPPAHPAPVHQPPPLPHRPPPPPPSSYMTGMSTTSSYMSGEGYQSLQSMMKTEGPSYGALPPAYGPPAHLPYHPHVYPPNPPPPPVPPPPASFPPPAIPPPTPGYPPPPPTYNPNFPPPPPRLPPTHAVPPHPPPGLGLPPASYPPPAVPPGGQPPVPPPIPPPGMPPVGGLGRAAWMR

`CN(CC1CC1)c1nc(NCc2nc3ccccc3[nH]2)n2ncc(Br)c2n1` [Example 287, N^4-[(1H-benzimidazol-2-yl)methyl]-8-bromo-N^2-(cyclopropylmethyl)-N^2-methylpyrazolo[1,5-a][1,3,5]triazine-2,4-diamine]: in assay [1], the DC50 is 101 nM and the “(IC50 CDK12 high ATP) to (Degradation DC50 CDK12) ratio” value is recorded as 106. Also, the IC50 in assay [2] was found to be 33.2 nM. Besides, the IC50 in assay [3] came out at 9480 nM.
The matching figures for `CN1CCN(c2nc(NCc3nc4ccccc4[nH]3)n3ncc(C(F)(F)F)c3n2)CC1` [Example 297, N-[(1H-benzimidazol-2-yl)methyl]-2-(4-methylpiperazin-1-yl)-8-(trifluoromethyl)pyrazolo[1,5-a][1,3,5]triazin-4-amine]: 7.59 nM, 2294, 22.3 nM and 13300 nM.
The matching figures for `COc1cccc2[nH]c(CNc3nc(N4CCOCC4)nc4c(CC(F)(F)F)cnn34)nc12` [Example 277, N-[(4-methoxy-1H-benzimidazol-2-yl)methyl]-2-(morpholin-4-yl)-8-(2,2,2-trifluoroethyl)pyrazolo[1,5-a][1,3,5]triazin-4-amine]: 4.48 nM, 1071, 30.9 nM and greater than 20000 nM.
Consider `N[C@H]1CN(c2nc(NCc3nc4ccccc4[nH]3)n3ncc(Br)c3n2)CC12CC2` [Example 259, 2-[(7R)-7-amino-5-azaspiro[2.4]heptan-5-yl]-N-[(1H-benzimidazol-2-yl)methyl]-8-bromopyrazolo[1,5-a][1,3,5]triazin-4-amine], for which, in assay [1], the DC50 came out at 7.16 nM and the “(IC50 CDK12 high ATP) to (Degradation DC50 CDK12) ratio” value is on record as 362. In assay [2], the IC50 worked out at 11.9 nM. Also, the IC50 in assay [3] was found to be 1400 nM.
The matching figures for `CNC1CCN(c2nc(NCc3nc4ccccc4[nH]3)n3ncc(Br)c3n2)CC1` [Example 272, N-[(1H-benzimidazol-2-yl)methyl]-8-bromo-2-[4-(methylamino)piperidin-1-yl]pyrazolo[1,5-a][1,3,5]triazin-4-amine]: 7.24 nM, greater than 2761, 22.4 nM and 16200 nM.
